For the experiment, the target named is T1, Human KLK1 (Homo sapiens, UniProt P06870).
T1 construct: purchased Callbiochem (Calbiochem)
T1 sequence (P06870 25-262): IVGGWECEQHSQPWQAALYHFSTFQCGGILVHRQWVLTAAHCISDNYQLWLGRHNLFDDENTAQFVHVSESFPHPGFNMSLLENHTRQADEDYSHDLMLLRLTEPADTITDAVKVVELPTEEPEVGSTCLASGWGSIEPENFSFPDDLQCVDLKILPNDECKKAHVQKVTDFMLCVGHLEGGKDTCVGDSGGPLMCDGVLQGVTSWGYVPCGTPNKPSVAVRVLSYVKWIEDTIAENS
In words: Determination of the IC50 for KLK1 (fluorogenic substrate H-DVal-Leu-Arg-AFC). The note with it: 37° C. In kind it is biochemical. The essentials: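 Test compound at various concentrations was incubated with human KLK1 and the fluorogenic substrate H-DVal-Leu-Arg-AFC at 37° C. Absorbance change at 410 nm gave the initial reaction rate, from which IC50 was obtained.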
Compound `CC(C)N1CCC[C@@H]1C(=O)N[C@@H](Cc1ccccc1C(F)(F)F)C(=O)NCc1ccc(N)nc1` [Example 128, (R)-1-Isopropyl-pyrrolidine-2-carboxylic acid [(S)-1-[(6-amino-pyridin-3-ylmethyl)-carbamoyl]-2-(2-trifluoromethyl-phenyl)-ethyl]-amide] gave an IC50 of 7.6 nM.
Next, `Cc1cc[nH]c1C(=O)N[C@@H](Cc1ccccc1Cl)C(=O)NCc1ccc(N)nc1` [Example 262, 3-Methyl-1H-pyrrole-2-carboxylic acid [(S)-1-[(6-amino-pyridin-3-ylmethyl)-carbamoyl]-2-(2-chloro-phenyl)-ethyl]-amide]: 28.3 nM; `CC1CCCC(C)N1CC(=O)N[C@@H](Cc1ccc(F)cc1)C(=O)NCc1ccc(N)nc1` (stereo partly drawn) [Example 378, (S)—N-(6-Amino-pyridin-3-ylmethyl)-2-[2-(2,6-dimethyl-piperidin-1-yl)-acetylamino]-3-(4-fluoro-phenyl)-propionamide]: 2.5 nM; `Nc1ccc(CNC(=O)[C@H](Cc2ccc(F)cc2)NC(=O)c2cc3cc(F)ccc3[nH]2)cn1` [Example 331, 5-Fluoro-1H-indole-2-carboxylic acid [(S)-1-[(6-amino-pyridin-3-ylmethyl)-carbamoyl]-2-(4-fluoro-phenyl)-ethyl]-amide]: 32 nM.
Next, `Cc1cccc(C[C@H](NC(=O)c2cc3ccccc3[nH]2)C(=O)NCc2ccc(N)nc2)c1` [Example 317, 1H-Indole-2-carboxylic acid {(S)-1-[(6-amino-pyridin-3-ylmethyl)-carbamoyl]-2-m-tolyl-ethyl}-amide]: 14.7 nM.
Next, `Cc1nc(N)ccc1CNC(=O)[C@@H](Cc1cccc(Cl)c1)NC(=O)c1cc2ccccc2[nH]1` [Example 315, 1H-Indole-2-carboxylic acid [(R)-1-[(6-amino-2-methyl-pyridin-3-ylmethyl)-carbamoyl]-2-(3-chloro-phenyl)-ethyl]-amide]: 68.6 nM; `CN(C)[C@@H](CO)C(=O)N[C@@H](CC1CCCCC1)C(=O)NCc1ccc(N)nc1` [Example 386, (S)—N-{(S)-1-[(6-Amino-pyridin-3-ylmethyl)-carbamoyl]-2-cyclohexyl-ethyl}-2-dimethylamino-3-hydroxy-propionamide]: 260 nM; `CCC(C)[C@@H](C(=O)N[C@@H](Cc1ccc(F)c(F)c1)C(=O)NCc1ccc(N)nc1)N(C)C(C)C` (stereo partly drawn) [Example 349, (S)-2-(Isopropyl-methyl-amino)-3-methyl-pentanoic acid [(S)-1-[(6-amino-pyridin-3-ylmethyl)-carbamoyl]-2-(3,4-difluoro-phenyl)-ethyl]-amide]: 7.8 nM.
Take `CCC(C)[C@H](NC)C(=O)N[C@@H](CC1CCCCC1)C(=O)NCc1ccc(N)nc1` (stereo partly drawn) [Example 339, (S)-3-Methyl-2-methylamino-pentanoic acid {(S)-1-[(6-amino-pyridin-3-ylmethyl)-carbamoyl]-2-cyclohexyl-ethyl}-amide]: half-maximal inhibition (IC50) required 39.8 nM.
For `Cc1cc[nH]c1C(=O)N[C@@H](Cc1cccc(C(F)(F)F)c1)C(=O)NCc1ccc(N)nc1` [Example 271, 3-Methyl-1H-pyrrole-2-carboxylic acid [(S)-1-[(6-amino-pyridin-3-ylmethyl)-carbamoyl]-2-(3-trifluoromethyl-phenyl)-ethyl]-amide] the value was 3.3 nM.
Next, `CN(C)[C@@H](C(=O)N[C@@H](Cc1ccc(F)cc1)C(=O)NCc1ccc(N)nc1)C(C)(C)C` [Example 183, (R)—N-[(S)-1-[(6-Amino-pyridin-3-ylmethyl)-carbamoyl]-2-(4-fluoro-phenyl)-ethyl]-2-dimethylamino-3,3-dimethyl-butyramide]: 5.1 nM.
For `CN1CCC[C@@H]1C(=O)N[C@@H](Cc1ccccc1C(F)(F)F)C(=O)NCc1ccc(N)nc1` [Example 111, (R)-1-Methyl-pyrrolidine-2-carboxylic acid [(S)-1-[(6-amino-pyridin-3-ylmethyl)-carbamoyl]-2-(2-trifluoromethyl-phenyl)-ethyl]-amide] the value was 15 nM.
`Cc1ccc(-c2ccc(C(=O)N[C@@H](Cc3cccc4ccccc34)C(=O)NCc3ccc(N)nc3)[nH]2)cc1` [Example 292, 5-p-Tolyl-1H-pyrrole-2-carboxylic acid {(S)-1-[(6-amino-pyridin-3-ylmethyl)-carbamoyl]-2-naphthalen-1-yl-ethyl}-amide] came in with an IC50 of 31.5 nM.
`CCC(C)[C@@H](N)C(=O)N[C@@H](Cc1cc(F)cc(F)c1)C(=O)NCc1ccc(N)nc1` (stereo partly drawn) [Example 39, (R)-2-Amino-3-methyl-pentanoic acid [(S)-1-[(6-amino-pyridin-3-ylmethyl)-carbamoyl]-2-(3,5-difluoro-phenyl)-ethyl]-amide] displayed an IC50 of 5.8 nM. This IC50 lies about 5.4-fold lower than the previous one.
Next, `Nc1ccc(CNC(=O)[C@H](Cc2ccc(F)c(F)c2)NC(=O)CNCCc2ccccc2)cn1` [Example 160, (S)—N-(6-Amino-pyridin-3-ylmethyl)-3-(3,4-difluoro-phenyl)-2-(2-phenethylamino-acetylamino)-propionamide]: 185 nM.
`Nc1ccc(CNC(=O)[C@H](Cc2ccc(Cl)c(Cl)c2)NC(=O)[C@H]2CCCCN2)cn1` [Example 63, (R)-Piperidine-2-carboxylic acid [(S)-1-[(6-amino-pyridin-3-ylmethyl)-carbamoyl]-2-(3,4-dichloro-phenyl)-ethyl]-amide] returned an IC50 of 0.66 nM.
For `Nc1ccc(CNC(=O)[C@H](Cc2ccc(F)c(F)c2)NC(=O)c2cc3ccccc3[nH]2)cn1` [Example 325, 1H-Indole-2-carboxylic acid [(S)-1-[(6-amino-pyridin-3-ylmethyl)-carbamoyl]-2-(3,4-difluoro-phenyl)-ethyl]-amide] the value was 21.3 nM; for `CCN(CC)CC(=O)N[C@@H](Cc1ccc(F)c(F)c1)C(=O)NCc1ccc(N)nc1` [Example 10, (S)—N-(6-Amino-pyridin-3-ylmethyl)-2-(2-diethylamino-acetylamino)-3-(3,4-difluoro-phenyl)-propionamide], 13.7 nM; for `CC(C)N(C(C)C)[C@@H](C)C(=O)N[C@@H](Cc1ccc(F)cc1)C(=O)NCc1ccc(N)nc1` [Example 372, (S)—N-[(S)-1-[(6-Amino-pyridin-3-ylmethyl)-carbamoyl]-2-(4-fluoro-phenyl)-ethyl]-2-diisopropylamino-propionamide], 34.3 nM.
For `CCCN1CCC[C@@H]1C(=O)N[C@@H](Cc1ccc(F)c(F)c1)C(=O)NCc1ccc(N)nc1` [Example 132, (R)-1-Propyl-pyrrolidine-2-carboxylic acid [(S)-1-[(6-amino-pyridin-3-ylmethyl)-carbamoyl]-2-(3,4-difluoro-phenyl)-ethyl]-amide] the value was 6.4 nM; for `Cc1cc[nH]c1C(=O)N[C@@H](Cc1ccc(Cl)c(Cl)c1)C(=O)NCc1ccc(N)nc1` [Example 264, 3-Methyl-1H-pyrrole-2-carboxylic acid [(S)-1-[(6-amino-pyridin-3-ylmethyl)-carbamoyl]-2-(3,4-dichloro-phenyl)-ethyl]-amide], 3.1 nM.
`CC(C)CN1CCC[C@@H]1C(=O)N[C@@H](Cc1ccc(F)c(F)c1)C(=O)NCc1ccc(N)nc1` [Example 133, (R)-1-Isobutyl-pyrrolidine-2-carboxylic acid [(S)-1-[(6-amino-pyridin-3-ylmethyl)-carbamoyl]-2-(3,4-difluoro-phenyl)-ethyl]-amide] yielded an IC50 of 16.5 nM.
Next, `Cc1cc(C)c(C(=O)N[C@@H](Cc2cccc(Cl)c2)C(=O)NCc2ccc(N)nc2C)[nH]1` [Example 279, 3,5-Dimethyl-1H-pyrrole-2-carboxylic acid [(S)-1-[(6-amino-2-methyl-pyridin-3-ylmethyl)-carbamoyl]-2-(3-chloro-phenyl)-ethyl]-amide]: 4.5 nM; `CCC(C)[C@@H](C(=O)N[C@@H](Cc1ccc(F)cc1)C(=O)NCc1ccc(N)nc1)N(C)C(C)C` (stereo partly drawn) [Example 371, (S)-2-(Isopropyl-methyl-amino)-3-methyl-pentanoic acid [(S)-1-[(6-amino-pyridin-3-ylmethyl)-carbamoyl]-2-(4-fluoro-phenyl)-ethyl]-amide]: 7.3 nM; `CCOc1ccc(C[C@H](NC(=O)c2[nH]c(C)cc2C)C(=O)NCc2ccc(N)nc2)cc1` [Example 255, 3,5-Dimethyl-1H-pyrrole-2-carboxylic acid [(S)-1-[(6-amino-pyridin-3-ylmethyl)-carbamoyl]-2-(4-ethoxy-phenyl)-ethyl]-amide]: 105 nM.
Next, `CCC(C)[C@@H](NC)C(=O)N[C@@H](Cc1ccc(O)cc1)C(=O)NCc1ccc(N)nc1` (stereo partly drawn) [Example 47, (R)-3-Methyl-2-methylamino-pentanoic acid [(S)-1-[(6-amino-pyridin-3-ylmethyl)-carbamoyl]-2-(4-hydroxy-phenyl)-ethyl]-amide]: 316 nM; `Cc1nc(N)ccc1CNC(=O)[C@H](Cc1cccc2ccccc12)NC(=O)c1cc2ccccc2[nH]1` [Example 303, 1H-Indole-2-carboxylic acid {(S)-1-[(6-amino-2-methyl-pyridin-3-ylmethyl)-carbamoyl]-2-naphthalen-1-yl-ethyl}-amide]: 240 nM; `CCN(C)[C@@H](C)C(=O)N[C@@H](Cc1ccc(F)c(F)c1)C(=O)NCc1ccc(N)nc1` [Example 345, (S)—N-[(S)-1-[(6-Amino-pyridin-3-ylmethyl)-carbamoyl]-2-(3,4-difluoro-phenyl)-ethyl]-2-(ethyl-methyl-amino)-propionamide]: 7.7 nM.

One may read the IC50 as the midpoint of a concentration-inhibition curve. Low values mean higher potency, high ones lower potency.

The record behind these values is US20100076015A1, “Aminopyridine Derivatives” (VANTIA LIMITED, priority 2008, published 2010).
